# Laboratory results published in patent US10934282B2, “Heteroaromatic modulators of the retinoid-related orphan receptor gamma” (LEO PHARMA A/S, priority 2016, dated 2021).
# Where a name gives a salt, the structure may show the parent alone.
# Key:
# [1] = test system: IL-17A levels in human peripheral blood; assay: tissue or blood; assay type: cell-based; conditions: 72 h, read-out: Human Whole blood IL-17A (nM)
# [2] = test system: IL-17A in Human peripheral mononuclear cells; assay: Human PBMC IL-17A assay; assay type: cell-based; conditions: 72 h, EC50, antiCD3/antiCD28-coated beads, 3 days, alpha-LISA
# Outline: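 Cryopreserved human PBMC (130,000/well) stimulated with anti-CD3/anti-CD28-coated beads (1 cell per bead) in RPMI-1640 with 10% bovine calf serum, compounds at 0.1% DMSO, for 3 days. Supernatant IL-17A measured by AlphaLISA, viability by PrestoBlue; EC50 from 4-parameter non-linear regression.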
# [3] = biological target: T1, human RORgt nuclear receptor (RORgT ligand binding domain protein) (Homo sapiens, UniProt P51449); assay: ROR-gamma binding assay (Scintillation Proximity Assay, displacement of [3H]-25-hydroxycholesterol); conditions: EC50, SPA, 15 nM [3H]-25-Hydroxycholesterol, RORgT LBD 12 nM
# T1 construct: purchased Proteros Biostructures GmbH
# T1 sequence (P51449 with tags, fused parts or gaps): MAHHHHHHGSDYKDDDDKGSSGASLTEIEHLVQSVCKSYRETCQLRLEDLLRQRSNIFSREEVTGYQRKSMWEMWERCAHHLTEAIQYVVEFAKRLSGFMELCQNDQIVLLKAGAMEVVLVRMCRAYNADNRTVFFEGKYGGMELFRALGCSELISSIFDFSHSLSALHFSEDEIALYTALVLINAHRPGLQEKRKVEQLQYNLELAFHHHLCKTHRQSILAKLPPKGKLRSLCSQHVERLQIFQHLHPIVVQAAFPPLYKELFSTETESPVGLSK
# Outline: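 SPA competition of compound against 15 nM [3H]-25-hydroxycholesterol for His/FLAG-tagged human RORγt LBD (12 nM) on His-tag PVT beads, in 50 mM HEPES pH 7.4, 150 mM NaCl, 5 mM MgCl2, 0.1% BSA, 0.5% DMSO. 30 min preincubation, then ≥4 h at room temperature in darkness; EC50 by four-parameter fit.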
SMILES,EC50 [1] [nM],EC50 [2] [nM],EC50 [3] [nM]
"Cc1cc(CN2CCN(C(=O)OC(C)C)[C@@H](C)C2)c(C)c(Nc2nnc([C@@H]3COCCN3)o2)c1 [Example 55, isopropyl (2S)-4-[[2,5-dimethyl-3-[[5-[(3S)-morpholin-3-yl]-1,3,4-oxadiazol-2-yl]amino]phenyl]methyl]-2-methyl-piperazine-1-carboxylate dihydrochloride]",36.8,62.3,39
"Cc1cc(CN2CCN(C(=O)OC(C)(C)C)[C@@H](C)C2)c(C)c(Nc2nnc([C@H]3C[C@@H](O)C3)o2)c1 [Example 29, tert-butyl (2S)-4-[[3-[[5-(3-hydroxycyclobutyl)-1,3,4-oxadiazol-2-yl]amino]-2,5-dimethyl-phenyl]methyl]-2-methyl-piperazine-1-carboxylate]",422,117,37.8
"Cc1c(CN2CCN(C(=O)OC(C)C)[C@@H](C)C2)cc(Cl)cc1Nc1nnc(C2(O)CC2)o1 [Example 45, isopropyl (2S)-4-[[5-chloro-3-[[5-(1-hydroxycyclopropyl)-1,3,4-oxadiazol-2-yl]amino]-2-methyl-phenyl]methyl]-2-methyl-piperazine-1-carboxylate]",330,39.9,42
"Cc1c(CN2CCN(C(=O)OC(C)C)[C@@H](C)C2)cc(Cl)cc1Nc1nnc(C2CNC(=O)C2)o1 (stereo partly drawn) [Example 67, isopropyl (2S)-4-[[5-chloro-2-methyl-3-[[5-(5-oxopyrrolidin-3-yl)-1,3,4-oxadiazol-2-yl]amino]phenyl]methyl]-2-methyl-piperazine-1-carboxylate]",597,47.2,62.2
"Cc1c(CN2CCN(C(=O)OC(C)(C)C)[C@@H](C)C2)cc(Cl)cc1Nc1ncc(CO)o1 [Example 74, tert-butyl (2S)-4-[[5-chloro-3-[[5-(hydroxymethyl)oxazol-2-yl]amino]-2-methyl-phenyl]methyl]-2-methyl-piperazine-1-carboxylate]",946,408,71.8
"CCC(F)(F)C(=O)N1CCN(Cc2cc(Cl)cc(Nc3nnc(COC)o3)c2C)C[C@@H]1C [Example 8, 1-[(2S)-4-[[5-chloro-3-[[5-(methoxymethyl)-1,3,4-oxadiazol-2-yl]amino]-2-methyl-phenyl]methyl]-2-methyl-piperazin-1-yl]-2,2-difluoro-butan-1-one]",497,251,69
"Cc1cc(CN2CCN(C(=O)C3CC3)[C@@H](C)C2)c(C)c(Nc2nnc([C@@H](C)O)o2)c1 [Example 22, cyclopropyl-[(2S)-4-[[3-[[5-[(1R)-1-hydroxyethyl]-1,3,4-oxadiazol-2-yl]amino]-2,5-dimethyl-phenyl]methyl]-2-methyl-piperazin-1-yl]methanone]",355,254,169
"Cc1c(CN2CCN(C(=O)C3CCCC3)[C@@H](C)C2)cc(Cl)cc1Nc1nnc(CC#N)o1 [Example 18, 2-[5-[5-chloro-3-[[4-(cyclopentanecarbonyl)-3-methyl-piperazin-1-yl]methyl]-2-methyl-anilino]-1,3,4-oxadiazol-2-yl]acetonitrile]",203,69.8,21.2
"COCc1nnc(Nc2cc(Cl)cc(CN3CCN(C(=O)c4ccccc4F)[C@@H](C)C3)c2C)o1 [Example 9, [(2S)-4-[[5-chloro-3-[[5-(methoxymethyl)-1,3,4-oxadiazol-2-yl]amino]-2-methyl-phenyl]methyl]-2-methyl-piperazin-1-yl]-(2-fluorophenyl)methanone]",254,99.3,23.5
"Cc1c(CN2CCN(C(=O)OC(C)C)[C@@H](C)C2)cc(Cl)cc1Nc1nnc([C@H]2C[C@H](O)C2)o1 [Example 64, isopropyl (2S)-4-[[5-chloro-3-[[5-(3-hydroxycyclobutyl)-1,3,4-oxadiazol-2-yl]amino]-2-methyl-phenyl]methyl]-2-methyl-piperazine-1-carboxylate]",191,131,50.6
"Cc1cc(CN2CCN(C(=O)OC(C)C)[C@@H](C)C2)c(C)c(Nc2nnc([C@@H](O)CO)o2)c1 [Example 72, isopropyl (2S)-4-[[3-[[5-[(1S)-1,2-dihydroxyethyl]-1,3,4-oxadiazol-2-yl]amino]-2,5-dimethyl-phenyl]methyl]-2-methyl-piperazine-1-carboxylate]",258,262,81.6
"Cc1cc(CN2CCN(C(=O)O[C@H](C)C(F)(F)F)[C@@H](C)C2)c(C)c(Nc2nnc([C@@H](O)CO)o2)c1 [Example 75, [(1R)-2,2,2-trifluoro-1-methyl-ethyl] (2S)-4-[[3-[[5-[(1S)-1,2-dihydroxyethyl]-1,3,4-oxadiazol-2-yl]amino]-2,5-dimethyl-phenyl]methyl]-2-methyl-piperazine-1-carboxylate]",158,52.9,32.4
"Cc1cc(CN2CCN(C(=O)OC(C)C)[C@@H](C)C2)c(C)c(Nc2nnc([C@H](C)N)o2)c1 [Example 49, isopropyl (2S)-4-[[3-[[5-[(1S)-1-aminoethyl]-1,3,4-oxadiazol-2-yl]amino]-2,5-dimethyl-phenyl]methyl]-2-methyl-piperazine-1-carboxylate]",275,218,90.5
"Cc1cc(CN2CCN(C(=O)OC(C)C)[C@@H](C)C2)c(C)c(Nc2nnc([C@@H](N)CO)o2)c1 [Example 36, isopropyl (2S)-4-[[3-[[5-[(1S)-1-amino-2-hydroxy-ethyl]-1,3,4-oxadiazol-2-yl]amino]-2,5-dimethyl-phenyl]methyl]-2-methyl-piperazine-1-carboxylate]",451,366,84.1
"Cc1cc(CN2CCN(C(=O)C3CCC3)[C@@H](C)C2)c(C)c(Nc2nnc([C@@H](C)O)o2)c1 [Example 19, cyclobutyl-[(2S)-4-[[3-[[5-[(1R)-1-hydroxyethyl]-1,3,4-oxadiazol-2-yl]amino]-2,5-dimethyl-phenyl]methyl]-2-methyl-piperazin-1-yl]methanone]",216,117,92.3
"Cc1cc(CN2CCN(C(=O)C3CCC3)[C@@H](C)C2)c(C)c(Nc2nnc([C@H](C)O)o2)c1 [Example 20, cyclobutyl-[(2S)-4-[[3-[[5-[(1S)-1-hydroxyethyl]-1,3,4-oxadiazol-2-yl]amino]-2,5-dimethyl-phenyl]methyl]-2-methyl-piperazin-1-yl]methanone]",259,189,113
"Cc1cc(CN2CCN(C(=O)OC(C)C)[C@@H](C)C2)c(C)c(Nc2nnc([C@@H](N)[C@@H](C)O)o2)c1 [Example 41, isopropyl (2S)-4-[[3-[[5-[(1S,2R)-1-amino-2-hydroxy-propyl]-1,3,4-oxadiazol-2-yl]amino]-2,5-dimethyl-phenyl]methyl]-2-methyl-piperazine-1-carboxylate]",373,215,91.1
"Cc1c(CN2CCN(C(=O)OC(C)C)[C@@H](C)C2)cc(Cl)cc1Nc1nnc([C@H](C)O)o1 [Example 63, isopropyl (2S)-4-[[5-chloro-3-[[5-[(1S)-1-hydroxyethyl]-1,3,4-oxadiazol-2-yl]amino]-2-methyl-phenyl]methyl]-2-methyl-piperazine-1-carboxylate]",187,62.1,34.8
"Cc1cc(CN2CCN(C(=O)C3CC3C)[C@@H](C)C2)c(C)c(Nc2nnc([C@@H](C)O)o2)c1 (stereo partly drawn) [Example 23, [(2S)-4-[[3-[[5-[(1R)-1-hydroxyethyl]-1,3,4-oxadiazol-2-yl]amino]-2,5-dimethyl-phenyl]methyl]-2-methyl-piperazin-1-yl]-(2-methylcyclopropyl)methanone]",238,368,125
"Cc1c(CN2CCN(C(=O)OC(C)C)[C@@H](C)C2)cc(C(F)F)cc1Nc1nnc([C@H](C)O)o1 [Example 43, isopropyl (2S)-4-[[5-(difluoromethyl)-3-[[5-[(1S)-1-hydroxyethyl]-1,3,4-oxadiazol-2-yl]amino]-2-methyl-phenyl]methyl]-2-methyl-piperazine-1-carboxylate]",332,63.5,53.9
"Cc1cc(CN2CCN(C(=O)OC(C)C)[C@@H](C)C2)c(C)c(Nc2nnc([C@@H]3CCCN3S(C)(=O)=O)o2)c1 [Example 65, isopropyl (2S)-4-[[2,5-dimethyl-3-[[5-[(2S)-1-methylsulfonylpyrrolidin-2-yl]-1,3,4-oxadiazol-2-yl]amino]phenyl]methyl]-2-methyl-piperazine-1-carboxylate]",107,58.7,47.9
